Measurements from patent publication US4759880A, “Alkanoarachidonic acids” (Research Corporation, priority 1984, dated 1988).

What was measured:
5-lipoxygenase = molecular target: T1, 5-lipoxygenase (Rattus norvegicus, UniProt P12527); assay: Inhibition of conversion of 14C-AA to 14C-5-HETE in supernatant from RBL-1 cells; assay type: biochemical
T1 construct: super natant from RBL-1 cells; endogenous in cells; host or cells: RBL-1 cells (supernatant)
T1 sequence (P12527 1-673): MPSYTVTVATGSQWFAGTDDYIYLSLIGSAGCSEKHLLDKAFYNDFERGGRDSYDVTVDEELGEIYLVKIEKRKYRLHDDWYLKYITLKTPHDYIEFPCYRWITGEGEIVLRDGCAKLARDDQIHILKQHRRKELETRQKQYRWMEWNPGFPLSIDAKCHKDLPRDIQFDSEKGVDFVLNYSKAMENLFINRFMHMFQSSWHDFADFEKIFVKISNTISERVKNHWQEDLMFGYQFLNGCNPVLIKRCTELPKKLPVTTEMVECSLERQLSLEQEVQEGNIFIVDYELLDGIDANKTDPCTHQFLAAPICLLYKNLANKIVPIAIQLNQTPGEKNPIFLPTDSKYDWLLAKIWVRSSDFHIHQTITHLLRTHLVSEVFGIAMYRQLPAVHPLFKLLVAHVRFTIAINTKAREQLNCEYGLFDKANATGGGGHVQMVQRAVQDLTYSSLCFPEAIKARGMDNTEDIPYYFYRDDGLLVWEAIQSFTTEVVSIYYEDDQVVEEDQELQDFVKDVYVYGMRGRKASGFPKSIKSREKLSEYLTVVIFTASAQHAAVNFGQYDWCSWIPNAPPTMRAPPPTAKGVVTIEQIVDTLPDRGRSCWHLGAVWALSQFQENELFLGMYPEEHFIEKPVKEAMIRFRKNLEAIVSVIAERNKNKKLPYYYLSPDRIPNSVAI
Excerpt: (§1) Biological studies to define the profiles of these compounds reveal interesting and selective properties including, in vitro inhibition of SRS-A biosynthesis, 5-lipoxygenase inhibition, phospholiphase A2 inhibition and antithrombotic activity.

[1] = tested on: human gel-filtered platelet suspension; assay: Inhibition of AA-induced platelet aggregation; assay type: cell-based; details: human gel-filtered platelet suspension containing 0.2% albumin
Excerpt: as §1

- inhibition at 100 µM (5-lipoxygenase): 86%
SMILES: CCCCC/C=C\C/C=C\C/C=C\C1(/C=C\CCCC(=O)O)CC1 [compound 1]
- inhibition at 80 µM [1]: 50%
